Values joined by “and” are separate entries in the source; they are usually repeats but may differ in a detail not shown here. Identical values can stand only once. Inconclusive results and toxic doses are left out.

In this experiment the test system is P388 leukemia ip, CD2F1 mice, survival T/C. Briefly: NCI In Vivo Anticancer Drug Screen. Data for tumor model P388 Leukemia (intraperitoneal) in CD2F1 (CDF1) mice. The note with it: endpoint: median survival time, higher = longer survival. A digest of the protocol:
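Mice carrying the transplanted tumor received test compound or vehicle. Survival was recorded in each group, and the value is the treated-group measurement divided by that of the vehicle-treated control group.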

Setting [1] is: dose: 50.0 mg/kg/injection, schedule: Q01DX005 (ip), vehicle: Klucel (hydroxypropylcellulose) (HPC).
Where [2] appears, read: dose: 100.0 mg/kg/injection, schedule: Q01DX005 (ip), vehicle: Klucel (hydroxypropylcellulose) (HPC).
[3] abbreviates: dose: 200.0 mg/kg/injection, schedule: Q01DX005 (ip), vehicle: Klucel (hydroxypropylcellulose) (HPC).
Where [4] appears, read: dose: 25.0 mg/kg/injection, schedule: Q01DX009 (ip), vehicle: saline.
The mark [5] stands for this setting: dose: 50.0 mg/kg/injection, schedule: Q01DX009 (ip), vehicle: saline with Tween-80.
[6] abbreviates: dose: 100.0 mg/kg/injection, schedule: Q01DX009 (ip), vehicle: saline with Tween-80.
[7] abbreviates: dose: 200.0 mg/kg/injection, schedule: Q01DX009 (ip), vehicle: saline with Tween-80.
Where [8] appears, read: dose: 60.0 mg/kg/injection, schedule: Q01DX005 (ip), vehicle: saline with Tween-80.
Where [9] appears, read: dose: 50.0 mg/kg/injection, schedule: Q01DX005 (ip), vehicle: saline with Tween-80.
Setting [10] is: dose: 100.0 mg/kg/injection, schedule: Q01DX005 (ip), vehicle: saline with Tween-80.
The mark [11] stands for this setting: dose: 12.5 mg/kg/injection, schedule: Q01DX009 (ip), vehicle: saline.
Where [12] appears, read: dose: 1.56 mg/kg/injection, schedule: Q01DX009 (ip), vehicle: saline.
[13] abbreviates: dose: 50.0 mg/kg/injection, schedule: Q01DX009 (ip), vehicle: Klucel (hydroxypropylcellulose) (HPC).
The mark [14] stands for this setting: dose: 100.0 mg/kg/injection, schedule: Q01DX009 (ip), vehicle: Klucel (hydroxypropylcellulose) (HPC).
Setting [15] is: dose: 200.0 mg/kg/injection, schedule: Q01DX009 (ip), vehicle: Klucel (hydroxypropylcellulose) (HPC).
The mark [16] stands for this setting: dose: 200.0 mg/kg/injection, schedule: Q01DX005 (ip), vehicle: saline with Tween-80.
The mark [17] stands for this setting: dose: 120.0 mg/kg/injection, schedule: Q01DX005 (ip), vehicle: saline with Tween-80.
Setting [18] is: dose: 240.0 mg/kg/injection, schedule: Q01DX005 (ip), vehicle: saline with Tween-80.

Take `N#C/C(N)=C(\C#N)N=c1c(-c2ccccc2)c1-c1ccccc1`: the T/C is, setting by setting: under setting [1], 102 % of control and 103 % of control; under setting [2], 103 % of control and 113 % of control; under setting [3], 109 % of control and 122 % of control.
`COc1cc(N(CCCl)CCCl)c(OC)cc1C=Nc1ccccc1C(=O)O`: the T/C is, setting by setting: (dose: 3.12 mg/kg/injection, schedule: Q01DX009 (ip), vehicle: suspension in saline) 114 % of control; under setting [4], 182 % of control.
With `COC(CCC1CO1)OC` (centres undefined), the T/C by setting is: under setting [5], 100 % of control; under setting [6], 96 % of control; under setting [7], 99 % of control.
On to `CC(=O)OCC1OC([S][Sb]([CH3])[CH3])C(OC(C)=O)C(OC(C)=O)C1OC(C)=O` (centres undefined), for which the T/C by setting is: (dose: 15.0 mg/kg/injection, schedule: Q01DX005 (ip), vehicle: saline with Tween-80) 112 % of control; (dose: 30.0 mg/kg/injection, schedule: Q01DX005 (ip), vehicle: saline with Tween-80) 101 % of control; under setting [8], 115 % of control.
For the molecule `CC[C@H]1C[C@H](Cc2ccccc2)CC[C@H]1N1CCCC1`, the T/C is 101 % of control under setting [9] and 104 % of control under setting [10].
On to `CC1CC[N-]C(C)C1.CN(C)C=O.[Cl][Pt][Cl]` (centres undefined), for which the T/C (dose: 1.56 mg/kg/injection, schedule: Q01DX009 (ip), vehicle: saline with Tween-80) is 114 % of control and the T/C (dose: 3.13 mg/kg/injection, schedule: Q01DX009 (ip), vehicle: saline with Tween-80) is 124 % of control.
Turning to `CC(C)(C)C(C(=O)O)C(=O)O`, the T/C is, setting by setting: under setting [11], 101 % of control; under setting [4], 99 % of control; (dose: 50.0 mg/kg/injection, schedule: Q01DX009 (ip), vehicle: saline) 96 % of control; (dose: 100.0 mg/kg/injection, schedule: Q01DX009 (ip), vehicle: saline) 99 % of control.
`O=C(Nc1nccs1)C(F)(F)F`: the T/C was 104 % of control under setting [5]; 104 % of control under setting [6]; 99 % of control under setting [7]; 108 % of control (dose: 400.0 mg/kg/injection, schedule: Q01DX009 (ip), vehicle: saline with Tween-80).
Consider `c1ccc2c(NCC3CCN(c4c5ccccc5nc5ccccc45)CC3)c3ccccc3nc2c1`, for which the T/C was 118 % of control (dose: 25.0 mg/kg/injection, schedule: Q04DX002 (ip), vehicle: saline with Tween-80); 117 % of control (dose: 50.0 mg/kg/injection, schedule: Q04DX002 (ip), vehicle: saline with Tween-80); 111 % of control (dose: 100.0 mg/kg/injection, schedule: Q04DX002 (ip), vehicle: saline with Tween-80).
For `CCN(CC)[P+](c1ccccc1O)(N(CC)CC)N(CC)CC`, the T/C reads like this: under setting [12], 100 % of control; (dose: 3.12 mg/kg/injection, schedule: Q01DX009 (ip), vehicle: saline) 101 % of control.
For `CCN(CCNc1ccc(CO)c2sc3ccccc3c(=O)c12)CC(C)(C)O`, the T/C was 123 % of control (dose: 265.0 mg/kg/injection, schedule: Q04DX003 (ip), vehicle: saline with Tween-80); 159 % of control (dose: 400.0 mg/kg/injection, schedule: Q04DX003 (ip), vehicle: saline with Tween-80); 185 % of control (dose: 600.0 mg/kg/injection, schedule: Q04DX003 (ip), vehicle: saline with Tween-80).
As for `CC(C)=CC(=O)OC(=O)C=C(C)C`, the T/C by setting is: (dose: 100.0 mg/kg/injection, schedule: Q04DX003 (ip), vehicle: other) 100 % of control; (dose: 200.0 mg/kg/injection, schedule: Q04DX003 (ip), vehicle: other) 100 % of control; (dose: 400.0 mg/kg/injection, schedule: Q04DX003 (ip), vehicle: other) 100 % of control.
As for `N=C(N)CCCCCCCCC(=N)N`, the T/C (dose: 0.78 mg/kg/injection, schedule: Q01DX009 (ip), vehicle: saline) is 98 % of control and 111 % of control and 118 % of control; the T/C (dose: 1.5 mg/kg/injection, schedule: Q01DX009 (ip), vehicle: saline) was 116 % of control; the T/C under setting [12] is 112 % of control and 114 % of control; the T/C (dose: 6.25 mg/kg/injection, schedule: Q01DX009 (ip), vehicle: saline) was 123 % of control; the T/C under setting [11] is 107 % of control and 116 % of control and 119 % of control.
In the case of `C/C(=N\NC(=S)N1CCN(C2CCCCCC2)CC1)c1ccccn1`, the T/C reads like this: (dose: 1.57 mg/kg/injection, schedule: Q01DX005 (ip), vehicle: saline with Tween-80) 96 % of control; (dose: 3.13 mg/kg/injection, schedule: Q01DX005 (ip), vehicle: saline with Tween-80) 100 % of control; (dose: 6.25 mg/kg/injection, schedule: Q01DX005 (ip), vehicle: saline with Tween-80) 114 % of control and 120 % of control.
For the molecule `CSc1nnc2sc3cc(C)ccc3n12`, the T/C is, setting by setting: under setting [13], 102 % of control; under setting [14], 103 % of control; under setting [15], 102 % of control.
With `CC1(C)OC2OC(C3COC(=O)O3)C(O)C2O1` (centres undefined), the T/C was 95 % of control under setting [1], 98 % of control under setting [2] and 101 % of control under setting [3].
Regarding `O[C@H]1CCC[C@H]1NCc1ccnc2cc(Cl)ccc12`, the T/C is, setting by setting: under setting [9], 100 % of control; under setting [10], 89 % of control; under setting [16], 91 % of control.
For `CCOP(=S)(N/N=C(/c1ccc(C)s1)C(F)(F)F)OCC`, the T/C runs as follows: under setting [1], 104 % of control; under setting [2], 110 % of control; under setting [3], 114 % of control.
Turning to `COC1=CC(=O)N/C1=C(\OC)c1ccccc1`, the T/C is, setting by setting: under setting [8], 90 % of control; under setting [17], 93 % of control; under setting [18], 99 % of control.
As to `Nc1ccc(C2=Cc3ccc(N)cc3S2(=O)=O)cc1`, the T/C is, setting by setting: (dose: 100.0 mg/kg/injection, schedule: Q04DX002 (ip), vehicle: saline) 99 % of control; (dose: 200.0 mg/kg/injection, schedule: Q04DX002 (ip), vehicle: saline) 99 % of control; (dose: 400.0 mg/kg/injection, schedule: Q04DX002 (ip), vehicle: saline) 101 % of control.
`O=C1CCCCC12CCCC2`: the T/C (dose: 87.5 mg/kg/injection, schedule: Q01DX001 (ip), vehicle: saline sonified) is 100 % of control; the T/C (dose: 175.0 mg/kg/injection, schedule: Q01DX001 (ip), vehicle: saline sonified) was 100 % of control; the T/C (dose: 250.0 mg/kg/injection, schedule: Q01DX001 (ip), vehicle: saline sonified) is 105 % of control.
Turning to `CCN(CC)Cc1c(C)[nH]c2c(ccc3cc4ccccc4cc32)c1=O`, the T/C is, setting by setting: (dose: 100.0 mg/kg/injection, schedule: Q04DX003 (ip), vehicle: Klucel (hydroxypropylcellulose) (HPC)) 94 % of control; (dose: 200.0 mg/kg/injection, schedule: Q04DX003 (ip), vehicle: Klucel (hydroxypropylcellulose) (HPC)) 97 % of control; (dose: 400.0 mg/kg/injection, schedule: Q04DX003 (ip), vehicle: Klucel (hydroxypropylcellulose) (HPC)) 96 % of control.
As for `CC1NC(=O)C(C)NC1=O` (centres undefined), the T/C was 93 % of control under setting [13], 96 % of control under setting [14] and 94 % of control under setting [15].
`ClCCN1c2ccccc2Oc2cc3ccccc3cc21`: the T/C is, setting by setting: under setting [9], 101 % of control; under setting [10], 110 % of control; under setting [16], 100 % of control.
Consider `BrC1=NOC2c3cccc4cccc(c34)C12` (centres undefined), for which the T/C by setting is: under setting [8], 108 % of control; under setting [17], 106 % of control; under setting [18], 105 % of control.
Regarding `Cc1cc(NN)nc2n[nH]c(N)c12`, the T/C runs as follows: (dose: 12.5 mg/kg/injection, schedule: Q01DX005 (ip), vehicle: saline with Tween-80) 105 % of control; (dose: 25.0 mg/kg/injection, schedule: Q01DX005 (ip), vehicle: saline with Tween-80) 97 % of control; under setting [9], 102 % of control and 112 % of control.
As for `CCSC(CCC(NC(C)=O)C(=O)O)SCC` (centres undefined), the T/C is 98 % of control under setting [1], 99 % of control under setting [2] and 91 % of control under setting [3].
In the case of `COc1cc2nc(C)n(C)c(=O)c2cc1OC`, the T/C by setting is: (dose: 12.5 mg/kg/injection, schedule: Q01DX009 (ip), vehicle: saline with Tween-80) 95 % of control; (dose: 25.0 mg/kg/injection, schedule: Q01DX009 (ip), vehicle: saline with Tween-80) 116 % of control; under setting [5], 101 % of control.
